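Five compound concentrations were applied to cells in 96-well plates for 48 hours; endpoints were derived by simple linear interpolation of the resulting dose-response curve. GI50: concentration for 50% inhibition of growth.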 The source made the active and inactive calls. Cut-off read from the data, not from the text of the source: active = GI50 up to about 1.1 µM and inactive = higher.
Legend:
Experiment in all cases: NCI-60 cell line screen, 48 h
Malme-3M = tested on: Malme-3M
SK-MEL-2 = tested on: SK-MEL-2
TK-10 = tested on: TK-10
HL-60 = tested on: HL-60
HCT-116 = tested on: HCT-116
SNB-19 = tested on: SNB-19
NCI-H460 = tested on: NCI-H460
OVCAR-8 = tested on: OVCAR-8
SK-MEL-5 = tested on: SK-MEL-5
SNB-75 = tested on: SNB-75
IGROV-1 = tested on: IGROV-1
KM12 = tested on: KM12
HCC 2998 = tested on: HCC 2998
786-0 = tested on: 786-0
A498 = tested on: A498
RPMI-8226 = tested on: RPMI-8226
M14 = tested on: M14
OVCAR-5 = tested on: OVCAR-5
HT-29 = tested on: HT-29

| Compound | GI50 (Malme-3M) | GI50 (SK-MEL-2) | GI50 (TK-10) | GI50 (HL-60) | GI50 (HCT-116) | GI50 (SNB-19) | GI50 (NCI-H460) | GI50 (OVCAR-8) | GI50 (SK-MEL-5) | GI50 (SNB-75) | GI50 (IGROV-1) | GI50 (KM12) | GI50 (HCC 2998) | GI50 (786-0) | GI50 (A498) | GI50 (RPMI-8226) | GI50 (M14) | GI50 (OVCAR-5) | GI50 (HT-29) |
| --- | --- | --- | --- | --- | --- | --- | --- | --- | --- | --- | --- | --- | --- | --- | --- | --- | --- | --- | --- |
| O=c1c2cc(Br)ccc2nc(CNc2ccccc2)n1-c1ccccc1 | 14.8 µM (inactive) | 20.7 µM (inactive) | 21.7 µM (inactive) | 16.8 µM (inactive) | 13.4 µM (inactive) | 26.9 µM (inactive) | 17.4 µM (inactive) | 23.3 µM (inactive) | 15.6 µM (inactive) | 20.5 µM (inactive) | 15.8 µM (inactive) | 26.7 µM (inactive) | 19.5 µM (inactive) | 14.6 µM (inactive) | 34.6 µM (inactive) | 8.97 µM (inactive) | 20.7 µM (inactive) | 52.8 µM (inactive) | 16.7 µM (inactive) |
| C1CCN2CC3CONC3C2C1 (centres undefined) | > 100 µM (inactive) | > 100 µM (inactive) | > 100 µM (inactive) | > 100 µM (inactive) | > 100 µM (inactive) | > 100 µM (inactive) | > 100 µM (inactive) | > 100 µM (inactive) | > 100 µM (inactive) | > 100 µM (inactive) | > 100 µM (inactive) | > 100 µM (inactive) | > 100 µM (inactive) | > 100 µM (inactive) | > 100 µM (inactive) | > 100 µM (inactive) | > 100 µM (inactive) | > 100 µM (inactive) | > 100 µM (inactive) |
| COc1ccc(C2=Nc3ccccc3SC(C)C2)cc1OC (centres undefined) | 21.4 µM (inactive) | 30.3 µM (inactive) | 29.8 µM (inactive) | 22.4 µM (inactive) | 17.7 µM (inactive) | 20.2 µM (inactive) | 19.2 µM (inactive) | 22.8 µM (inactive) | 17.9 µM (inactive) | 14.3 µM (inactive) | 14.6 µM (inactive) | 16.8 µM (inactive) | 18.6 µM (inactive) | 16.3 µM (inactive) | 23.8 µM (inactive) | 13.8 µM (inactive) | 18.6 µM (inactive) | 24.7 µM (inactive) | 19.7 µM (inactive) |
| Cc1c[n+]2c3ccccc3c3ccccc3c2s1.[O-][Cl+3]([O-])([O-])[O-] | 2.49 µM (inactive) | 12.4 µM (inactive) | 1.39 µM (inactive) | 14.2 µM (inactive) | 6.37 µM (inactive) | 3.36 µM (inactive) | 5.94 µM (inactive) | 3.3 µM (inactive) | 5.35 µM (inactive) | 3.31 µM (inactive) | 29.4 µM (inactive) | 1.07 µM (active) | 3.2 µM (inactive) | 3.37 µM (inactive) | 55.6 µM (inactive) | 8.15 µM (inactive) | 17.4 µM (inactive) | 1.77 µM (inactive) | 14.1 µM (inactive) |
| Cn1cc(-c2ccc3c4ccccc4n(C)c3c2)c2ccccc21 | > 100 µM (inactive) | > 100 µM (inactive) | > 100 µM (inactive) | 75 µM (inactive) | > 100 µM (inactive) | > 100 µM (inactive) | > 100 µM (inactive) | > 100 µM (inactive) | > 100 µM (inactive) | > 100 µM (inactive) | > 100 µM (inactive) | 93.3 µM (inactive) | > 100 µM (inactive) | > 100 µM (inactive) | > 100 µM (inactive) | > 100 µM (inactive) | > 100 µM (inactive) | > 100 µM (inactive) | 89.9 µM (inactive) |
| Cc1cccc(NC(=O)/C=C/c2ccc(N(CCC#N)CCC#N)cc2C)c1 | > 100 µM (inactive) | > 100 µM (inactive) | > 100 µM (inactive) | 21.5 µM (inactive) | > 100 µM (inactive) | > 100 µM (inactive) | > 100 µM (inactive) | > 100 µM (inactive) | > 100 µM (inactive) | 54.5 µM (inactive) | > 100 µM (inactive) | > 100 µM (inactive) | > 100 µM (inactive) | > 100 µM (inactive) | > 100 µM (inactive) | > 100 µM (inactive) | > 100 µM (inactive) | > 100 µM (inactive) | > 100 µM (inactive) |

Reference: ChEMBL document CHEMBL1201862, “PubChem BioAssay data set” (2004)
